Data reported in US20080070938A1, “Medicinal composition for mitigating blood lipid or lowering blood homocysteine” (SANKYO COMPANY, LIMITED, priority 2002, published 2008).

Key:
Male Beagle dogs [1] = assay: Test Example 1: serum lipids (total cholesterol, LDL, triglyceride) after 11 days of oral dosing; assay type: in vivo; settings: oral once daily, Pyridoxine hydrochloride 50 mg/Kg, relative value, pre-treatment average = 100, mean of 5 dogs
Method: Pravastatin sodium manufactured at Sankyo Co., Ltd. was used. Simvastatin and atorvastatin synthesized at Chemtech Labo., Inc. were used.
The administration period was 11 days.
Approximately 10 mL of blood was collected from the cephalic vein of each dog on -14 and -7 day (the 1st and the 2nd week prior to administration) as well as 4, 8, and 12 days after administration.
The collected blood was placed in a test tube and allowed to stand at room temperature for 30 min to 1 hour. Then the blood was centrifuged (approximately 1,600 g, for 10 min) and the resultant serum obtained was used for assays.
Total cholesterol content was assayed by enzymatic assay method, while HDL, LDL, and triglyceride were determined by homogeneous method, chemically modified method, and enzymatic techniques, respectively. Clinical Laboratory System (TBA-120FR, Toshiba Medical Systems Corporation) was used in all of these determinations.
Relative values of various levels of serum lipids in animals treated with each dose of pyridoxine hydrochloride, pravastatin sodium, simvastatin, or atorvastatin calcium alone as well as the medicinal compositions described above were calculated against each converted average value calculated from that determined 2 weeks and 1 week before the treatment into 100.

Male Beagle dogs [2] = assay: Test Example 2: blood homocysteine levels (HPLC) after 11 days of oral dosing; settings: oral once daily, relative value, pre-treatment average = 100, mean of 5 dogs
Text: The required amount of the test substance calculated based on the body weight of the test animals was weighed and put in gelatin capsules (TORPAC Inc., ½ oz). After filling up, the capsules were placed in a box divided up for every animal and stored under freezing until use.
The capsules filled up with the test substance were orally administered to the test animals once daily via an oral gavage between 9:00-12:30. The test animals were fasted for 2-3 hrs prior to each administration. The administration period was 11 days.
Approximately 10 mL of blood was collected from the cephalic vein of each dog on -14 and -7 day (the 1st and the 2nd week prior to administration) as well as 4, 8, and 12 days after administration. The animals were fasted for approximately 18 hrs before collection of the blood.
Blood homocysteine levels were determined by HPLC method used conventionally in current clinical examination.
Relative values of blood homocysteine levels in animals treated with each dose of atorvastatin calcium or pyridoxine hydrochloride alone as well as the medicinal compositions of atorvastatin calcium plus pyridoxine hydrochloride were calculated against each converted average value calculated from that determined 2 weeks and 1 week before the treatment into 100.
The values indicate average results calculated from 5 dogs per a group.

[3] = test system: patients with cardiovascular diseases; settings: 6 successive weeks; patients with cardiovascular diseases (3 atorvastatin, 4 simvastatin); cited from earlier work
patients = settings: treated for one year; 20,705 patients; placebo control group 1.9% decrease; cited from earlier work
[4] = 4 Days after treatment, Atorvastatin calcium 2 mg/Kg
[5] = 8 Days after treatment, Atorvastatin calcium 2 mg/Kg
[6] = 12 Days after treatment, Atorvastatin calcium 2 mg/Kg
[7] = 4 Days after treatment, Atorvastatin calcium 2 mg/Kg and/or Pyridoxine hydrochloride 5 mg/Kg
[8] = 8 Days after treatment, Atorvastatin calcium 2 mg/Kg and/or Pyridoxine hydrochloride 5 mg/Kg
[9] = 12 Days after treatment, Atorvastatin calcium 2 mg/Kg and/or Pyridoxine hydrochloride 5 mg/Kg
[10] = 4 Days after treatment, Pravastatin sodium 2 mg/Kg
[11] = 8 Days after treatment, Pravastatin sodium 2 mg/Kg
[12] = 12 Days after treatment, Pravastatin sodium 2 mg/Kg
[13] = 4 Days after treatment, Simvastatin 1 mg/Kg
[14] = 8 Days after treatment, Simvastatin 1 mg/Kg
[15] = 12 Days after treatment, Simvastatin 1 mg/Kg

CC(C)c1c(C(=O)Nc2ccccc2)c(-c2ccccc2)c(-c2ccc(F)cc2)n1CC[C@H](O)C[C@@H](O)CC(=O)O [Atorvastatin calcium, (3R,5S)-7-[2-(4-fluorophenyl)-5-(1-methylethyl)-3-phenyl-4-phenylaminocarbonyl-1H-pyrrol-1-yl]-3,5-dihydroxyheptanoic acid]
Percent changes of blood LDL levels (Male Beagle dogs [1]; [4]): 82.4%
Percent changes of blood triglyceride levels (Male Beagle dogs [1]; [4]): 77.2%
Percent changes of blood LDL levels (Male Beagle dogs [1]; [5]): 82.1%
Percent changes of blood triglyceride levels (Male Beagle dogs [1]; [5]): 86.3%
Percent changes of blood LDL levels (Male Beagle dogs [1]; [6]): 83.6%
Percent changes of blood triglyceride levels (Male Beagle dogs [1]; [6]): 86.4%
Percent changes of blood homocysteine levels (Male Beagle dogs [2]; [7]): 107.2%
Percent changes of blood homocysteine levels (Male Beagle dogs [2]; [8]): 106.3%
Percent changes of blood homocysteine levels (Male Beagle dogs [2]; [9]): 106.9%

CC[C@H](C)C(=O)O[C@H]1C[C@H](O)C=C2C=C[C@H](C)[C@H](CC[C@@H](O)C[C@@H](O)CC(=O)O)[C@H]21 [Pravastatin sodium, (+)-(3R,5R)-3,5-dihydroxy-7-[(1S,2S,6S,8S,8aR)-6-hydroxy-2-methyl-8-[(S)-2-methylbutyryloxy]-1,2,6,7,8,8a-hexahydro-1-naphtyl]heptanoic acid]
Percent changes of blood LDL levels (Male Beagle dogs [1]; [10]): 92.6%
Percent changes of blood LDL levels (Male Beagle dogs [1]; [11]): 91.6%
Percent changes of blood LDL levels (Male Beagle dogs [1]; [12]): 90.4%

Cc1ncc(CO)c(CO)c1O.Cl [Pyridoxine hydrochloride]
Percent changes of blood LDL levels (Male Beagle dogs [1]; [4]): 101.7%
Percent changes of blood triglyceride levels (Male Beagle dogs [1]; [4]): 83.8%
Percent changes of blood LDL levels (Male Beagle dogs [1]; [10]): 101.7%
Percent changes of blood LDL levels (Male Beagle dogs [1]; [13]): 101.7%
Percent changes of blood total cholesterol levels (Male Beagle dogs [1]; [13]): 98.0%
Percent changes of blood triglyceride levels (Male Beagle dogs [1]; [13]): 83.8%
Percent changes of blood LDL levels (Male Beagle dogs [1]; [5]): 95.0%
Percent changes of blood triglyceride levels (Male Beagle dogs [1]; [5]): 86.7%
Percent changes of blood LDL levels (Male Beagle dogs [1]; [11]): 95.0%
Percent changes of blood LDL levels (Male Beagle dogs [1]; [14]): 95.0%
Percent changes of blood total cholesterol levels (Male Beagle dogs [1]; [14]): 93.3%
Percent changes of blood triglyceride levels (Male Beagle dogs [1]; [14]): 86.7%
Percent changes of blood LDL levels (Male Beagle dogs [1]; [6]): 91.4%
Percent changes of blood triglyceride levels (Male Beagle dogs [1]; [6]): 81.2%
Percent changes of blood LDL levels (Male Beagle dogs [1]; [12]): 91.4%
Percent changes of blood LDL levels (Male Beagle dogs [1]; [15]): 91.4%
Percent changes of blood total cholesterol levels (Male Beagle dogs [1]; [15]): 90.5%
Percent changes of blood triglyceride levels (Male Beagle dogs [1]; [15]): 81.2%
Percent changes of blood homocysteine levels (Male Beagle dogs [2]; [7]): 100.0%
Percent changes of blood homocysteine levels (Male Beagle dogs [2]; 4 Days after treatment, Pyridoxine hydrochloride 50 mg/Kg alone or with Atorvastatin calcium 2 mg/Kg): 101.4%
Percent changes of blood homocysteine levels (Male Beagle dogs [2]; [8]): 116.0%
Percent changes of blood homocysteine levels (Male Beagle dogs [2]; 8 Days after treatment, Pyridoxine hydrochloride 50 mg/Kg alone or with Atorvastatin calcium 2 mg/Kg): 111.5%
Percent changes of blood homocysteine levels (Male Beagle dogs [2]; [9]): 109.8%
Percent changes of blood homocysteine levels (Male Beagle dogs [2]; 12 Days after treatment, Pyridoxine hydrochloride 50 mg/Kg alone or with Atorvastatin calcium 2 mg/Kg): 103.0%

CCC(C)(C)C(=O)O[C@H]1C[C@@H](C)C=C2C=C[C@H](C)[C@H](CC[C@@H]3C[C@@H](O)CC(=O)O3)[C@H]21 [Simvastatin, (+)-(1S,3R,7S,8S,8aR)-1,2,3,7,8,8a-hexahydro-3,7-dimethyl-8-[2-[(2R,4R)-tetrahydro-4-hydroxy-6-oxo-2H-pyran-2-yl]ethyl]-1-naphthyl 2,2-dimethylbutyrate]
Percent changes of blood LDL levels (Male Beagle dogs [1]; [13]): 83.9%
Percent changes of blood total cholesterol levels (Male Beagle dogs [1]; [13]): 94.8%
Percent changes of blood triglyceride levels (Male Beagle dogs [1]; [13]): 66.4%
Percent changes of blood LDL levels (Male Beagle dogs [1]; [14]): 90.4%
Percent changes of blood total cholesterol levels (Male Beagle dogs [1]; [14]): 94.1%
Percent changes of blood triglyceride levels (Male Beagle dogs [1]; [14]): 85.3%
Percent changes of blood LDL levels (Male Beagle dogs [1]; [15]): 81.3%
Percent changes of blood total cholesterol levels (Male Beagle dogs [1]; [15]): 92.4%
Percent changes of blood triglyceride levels (Male Beagle dogs [1]; [15]): 82.0%
blood homocysteine levels (in words) [3]: decreased

CC(C)c1c(C(=O)Nc2ccccc2)c(-c2ccccc2)c(-c2ccc(F)cc2)n1CC[C@H](O)C[C@@H](O)CC(=O)O [atorvastatin, (3R,5S)-7-[2-(4-fluorophenyl)-5-(1-methylethyl)-3-phenyl-4-phenylaminocarbonyl-1H-pyrrol-1-yl]-3,5-dihydroxyheptanoic acid]
blood homocysteine levels (in words) [3]: increased

CC[C@H](C)C(=O)O[C@H]1C[C@@H](C)C=C2C=C[C@H](C)[C@H](CC[C@@H]3C[C@@H](O)CC(=O)O3)[C@H]21 [lovastatin, (+)-(1S,3R,7S,8S,8aR)-1,2,3,7,8,8a-hexahydro-3,7-dimethyl-8-[2-[(2R,4R)-tetrahydro-4-hydroxy-6-oxo-2H-pyran-2-yl]ethyl]-1-naphth yl(S)-2-methylbutyrate]
decrease of blood homocysteine levels on average (patients): 3.7%
